Assay results from BigSolDB 2.1.

O=c1c(O)c(-c2ccc(O)c(O)c2)oc2cc(O)cc(O)c12
solubility (mole fraction)
Conditions | 292.8 K | 298.6 K | 303.2 K | 308.6 K | 314.1 K | 318.8 K | 322.2 K | 325.6 K | 331.2 K | 333.8 K
in ethanol | 0.00135 | 0.00153 | 0.00165 | 0.00178 | 0.00193 | 0.00207 | 0.00218 | 0.0023 | 0.0025 | 0.00255
in methanol | 0.000845 | 0.000919 | 0.000957 | 0.00104 | 0.00113 | 0.00127 | 0.00133 | 0.00142 | 0.00159 | 0.00163
in water | 5.04e-05 | 5.51e-05 | 5.85e-05 | 6.18e-05 | 6.53e-05 | 6.7e-05 | 6.91e-05 | 7.13e-05 | 7.38e-05 | 7.53e-05
